# “Also recorded” adds a separate entry of the source. Like-named read-outs stand apart in the source and are kept apart here.
# Assays:
# [1] = test system: muscle-derived stromal cells (MDSC); experiment: Bone nodule formation by MDSC (alizarin red staining); assay type: cell-based, human
# Excerpt: FIG. 26 TNF-α and IL-6 promote osteogenic differentiation of MDSC A-D: ALP quantification assays after culture of 1×10^4 MDSC for 7 days in a 96-well plate in triplicate with: A: fracture supernatant, ±antibody neutralization of BMPs 2/4 7 and to TGF-β. The immunoglobulin isotype controls used included IgG^1 for AbBMP-2/4 and AbTGF-β, and IgG^2B for Ab-BMP-7. B: human serum containing culture medium with the addition of recombinant human BMPs and TGF-β. C: fracture supernatant±antibody neutralization of TNF-α, IL-6 and IL-1β. The IgG^1 immunoglobulin was used as the antibody isotype control. D: human serum-containing culture medium with the addition of recombinant human TNF-α, IL-6 and IL-1β. E: Alizarin red staining for bone nodule formation after culture of 1×10^4 MDSC in human serum-containing media. Recombinant human cytokine at the optimal dose indicated by D, was added for the first 3 days ONLY, and the cells were subsequently cultured in media for 32 days. A representative image from a single well is shown. All experiments were performed 3 times, in triplicate (n=3) using MDSC from 3 donors. Values for A-D represent a mean from 3 experiments ±SEM, using supernatant from 3 donors in A and C. *: P<0.05; **: P<0.01; ***: P<0.001; 1-way ANOVA with Bonferroni's multiple comparison test in A and C and with Dunnett's multiple comparison test against the media only control in B and D.
# 1×10^4 MDSC were added to wells of a 24-well plate in triplicate. The cells were cultured for 35-40 days in osteogenic media (DMEM with 10% fetal calf serum and 1% penicillin/streptomycin also containing 100 nM dexamethasone (SIGMA), 1 mM β-glycerol phosphate and […] ascorbic acid), supernatant or media containing recombinant cytokines (with one media change per week) the cells were fixed with 2 ml 10% neutral buffered formalin at room temperature for 15 min. The plate was then washed twice with excess PBS. 1 ml filtered 40 mM alizarin red solution (pH 4.1) was added to each well and agitated at room temperature for 30 minutes. The excess dye was then aspirated and the plate washed four times in distilled water with gentle agitation. Finally, the plates were turned upside-down on paper to dry. Bone nodules appeared red under light microscopy. Images were taken at 20 times magnification and performed as above.
# [2] = test system: muscle-derived stromal cells (MDSC); experiment: MDSC migration through a transwell membrane; assay type: cell-based, human
# Method: Migration of 1×10^4 MDSC through an 8 μm pore transwell membrane over 36 hours, in response to fracture supernatant with the addition of AbTNF-α, AbIL-6 and AbIL-1β. The IgG^1 immunoglobulin was used as the antibody control. B: Migration in response to rhTNF-α, rhIL-6 and rhIL-1β in human serum-containing media. Results represent change in cell number, expressed as a percentage of the supernatant, or media only control. Each experiment was performed 3 times (n=3) using 3 fracture supernatants (in A). Results represent mean of 3 experiments ±SEM. *: P<0.05; **: P<0.01; ***: P<0.001; 1-way ANOVA with Bonferroni's multiple comparison test.
# MDSC must be recruited to the fracture site from adjacent muscle. Next we assessed the efficacy of the pro-inflammatory cytokines in attracting MDSC in vitro using a transwell assay. 1×10^4 MDSC were seeded onto a 8 μm transwell membrane in serum free media. Next day, the transwell membrane was added to a well containing 10% human serum-containing media +IL-1β, IL6 and TNFα at the end concentrations shown. At 24 hrs the membrane was cleared of any cells on the seeded side, fixed and stained. IL-1β appeared not promote MDSC chemotaxis.
# 500 μl serum free media was added to each well of a 24 well plate. 8 μm pore transwell membranes (VWR International Ltd) were then added to the wells. 1×10^4 MDSC in serum free media were added to the upper chamber of each transwell membrane. At 12 hours the serum-free media was replaced with test or control media or supernatant and incubated at 37° C. for 36 hours. The upper chambers were then cleared of cells and cell debris using a cotton bud, in sweeping motions. The membrane was then washed and fixed using 10% neutral buffered formalin for 1 hour. After washing, the membrane was then added to a 1% crystal violet solution for 1 hour. After further washing, the membranes were viewed under light microscopy at 20 times magnification, using an Olympus CKX41 microscope with a QICAM camera, (QIMAGING, GT vision LLC). The number of cells present on the underside of the transwell membrane in any random field was counted 3 times and the mean calculated. Cell migration was calculated against the supernatant or human serum-containing (control) media and the number expressed as a percentage relative to the control media.
# [3] = test system: murine open tibial fracture; experiment: Murine open tibial fracture model, periosteally stripped (histology, CT scans); assay type: in vivo, C57BI/6 mice
# [4] = cited from earlier work
# fractured ribs = conditions: daily intraperitoneal 400 μg/kg body weight per day after fracture, rats; cited from earlier work
# osteoclast = conditions: TNF-α at 1 ng/ml; cited from earlier work
substance,measurement,setting,value
TNFα,bone nodule formation by MDSC,"[1]; Example 1, cytokine at 1 ng/ml, 5 weeks (FIG. 13)",promoted; also recorded: pronounced bone nodule formation
same,bone nodule formation by MDSC,"[1]; Example 3, recombinant cytokine at optimal dose for first 3 days, human serum-containing media (FIG. 26E)",stimulated vigorous nodule formation
same,chemotaxis / migration of MDSC,"[2]; Example 1, transwell, 10% human serum-containing media, 24 hrs (FIG. 14)",promote chemotaxis of MDSC; also recorded: promoted migration of MDSC
same,migration of MDSC,"[2]; Example 3, 8 μm transwell, 36 hours, recombinant cytokine in human serum-containing media (FIG. 27B)",chemo attractant for MDSC
same,optimal concentration for MDSC migration,"[2]; Example 3, transwell, 36 hours (FIG. 27B)",1 pg/mL
same,optimal dose for fracture healing,"[3]; 20 μl in PBS at fracture site, histology day 14 (FIG. 18)",50 ng/mL
same,optimal dose range for fracture healing,"[3]; 20 μl in PBS, 1 ng/ml equivalent to 1 ng/kg, histology day 14 (FIG. 18)",around 50 ng/kg
same,healing of tibial fractures by CT scans,"[3]; 28 days post injury, local administration at fracture site (TNFα 50 ng/kg and HMGB1 at time of fracture and 24 hr later) (FIG. 19, 30)",improved healing
same,fracture healing,[3]; TNFα 5 ng/ml at fracture site (FIG. 18),less pronounced effect
same,fracture healing,"[3]; TNFα 500 ng/ml (500 ng/kg) at fracture site, versus PBS vehicle (FIG. 18)",inhibitory
same,fracture healing,"[3]; TNFα 500 ng/ml (500 ng/kg) at fracture site, versus PBS vehicle (FIG. 18), listed as rhTNFα",inhibits fracture healing
same,fracture healing compared to control C57BI/6 mice,"[3]; exogenous addition at fracture site, histology day 14, log dose range 5-500 ng/ml (FIG. 18)",accelerated fracture healing
same,plasma half life,[4]; in the presence of soluble TNFα receptors,up to 6 hours
same,plasma half life,[4]; in vivo,less than 1 hour
same,fracture healing,fractured ribs,significantly inhibited
same,decrease of osteoclast number,osteoclast,> 90%

# Source: patent US20120213826A1, “Use of Pro-Inflammatory Compounds for Promoting Bone Formation” (Imperial Innovations Limited, priority 2009, published 2012)
